{"source": "ChEMBL document CHEMBL6074671", "about": "“Discovery of Pyridine-2-Carboxamides Derivatives as Potent and Selective HPK1 Inhibitors for the Treatment of Cancer” (J Med Chem, 2024)", "key": {"[1]": {"assay": "Effect on IFN-gamma secretion in human T cells by ELISA method", "format": "functional, cell-based", "conditions": "T-cell"}, "[2]": {"assay": "Inhibition of pSLP76 in human PBMC cells incubated for 4 hrs by HTRF method", "format": "cell-based"}, "[3]": {"assay": "Effect on IL-2 secretion in human T cells by ELISA method", "format": "functional, cell-based", "conditions": "T-cell"}, "[4]": {"target": "T1, Mitogen-activated protein kinase kinase kinase kinase 3 (Homo sapiens, UniProt Q8IVH8)", "T1 sequence (Q8IVH8 whole entry)": "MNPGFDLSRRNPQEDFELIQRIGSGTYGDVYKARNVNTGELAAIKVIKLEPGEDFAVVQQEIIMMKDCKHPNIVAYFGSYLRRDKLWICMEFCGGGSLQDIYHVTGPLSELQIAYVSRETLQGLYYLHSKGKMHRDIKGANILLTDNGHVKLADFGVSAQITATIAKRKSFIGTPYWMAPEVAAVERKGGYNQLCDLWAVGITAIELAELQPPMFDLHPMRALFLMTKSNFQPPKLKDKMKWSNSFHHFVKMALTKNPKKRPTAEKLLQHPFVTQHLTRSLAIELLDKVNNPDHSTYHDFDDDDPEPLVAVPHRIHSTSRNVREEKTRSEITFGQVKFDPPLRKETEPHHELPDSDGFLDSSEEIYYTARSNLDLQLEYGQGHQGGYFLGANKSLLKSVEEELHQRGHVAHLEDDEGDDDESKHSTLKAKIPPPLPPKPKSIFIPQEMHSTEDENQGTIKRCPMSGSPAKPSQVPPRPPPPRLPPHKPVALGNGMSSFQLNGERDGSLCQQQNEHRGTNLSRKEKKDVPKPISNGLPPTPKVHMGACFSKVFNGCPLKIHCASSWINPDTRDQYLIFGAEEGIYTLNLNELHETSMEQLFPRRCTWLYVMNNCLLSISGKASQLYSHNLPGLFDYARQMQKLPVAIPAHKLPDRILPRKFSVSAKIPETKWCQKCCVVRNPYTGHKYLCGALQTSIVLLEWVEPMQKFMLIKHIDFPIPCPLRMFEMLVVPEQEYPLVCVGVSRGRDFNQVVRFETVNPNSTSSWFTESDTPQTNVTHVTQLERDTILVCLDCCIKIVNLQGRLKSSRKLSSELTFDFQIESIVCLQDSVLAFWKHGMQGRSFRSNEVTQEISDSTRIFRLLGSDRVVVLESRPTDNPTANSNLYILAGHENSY", "assay": "Inhibition of GLK (unknown origin)"}, "[5]": {"target": "T2, Mitogen-activated protein kinase kinase kinase kinase 1 (Homo sapiens, UniProt Q92918)", "T2 sequence (Q92918 whole entry)": "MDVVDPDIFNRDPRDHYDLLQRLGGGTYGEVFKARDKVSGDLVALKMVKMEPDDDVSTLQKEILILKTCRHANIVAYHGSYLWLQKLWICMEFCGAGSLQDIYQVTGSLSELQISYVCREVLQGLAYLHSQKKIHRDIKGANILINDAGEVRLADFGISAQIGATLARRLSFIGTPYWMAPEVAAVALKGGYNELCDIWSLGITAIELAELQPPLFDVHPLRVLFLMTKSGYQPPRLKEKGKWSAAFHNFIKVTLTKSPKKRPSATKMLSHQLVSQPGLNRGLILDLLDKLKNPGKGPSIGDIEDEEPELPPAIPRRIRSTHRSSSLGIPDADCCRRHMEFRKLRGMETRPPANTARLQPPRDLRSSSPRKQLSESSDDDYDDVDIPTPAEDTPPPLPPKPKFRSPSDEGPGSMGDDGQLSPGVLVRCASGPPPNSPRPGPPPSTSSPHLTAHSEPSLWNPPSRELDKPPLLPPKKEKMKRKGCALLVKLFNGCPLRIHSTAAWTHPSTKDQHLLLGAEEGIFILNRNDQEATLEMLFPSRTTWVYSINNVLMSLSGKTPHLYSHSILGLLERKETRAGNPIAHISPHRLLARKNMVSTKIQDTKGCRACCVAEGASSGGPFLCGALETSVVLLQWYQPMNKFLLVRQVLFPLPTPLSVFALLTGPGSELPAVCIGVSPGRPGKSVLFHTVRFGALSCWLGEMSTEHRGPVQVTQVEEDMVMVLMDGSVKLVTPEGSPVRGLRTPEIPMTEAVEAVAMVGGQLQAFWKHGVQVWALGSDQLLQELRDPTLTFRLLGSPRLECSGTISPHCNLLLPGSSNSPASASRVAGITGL", "assay": "Inhibition of HPK1 in human PBMC cells assessed as IL-2 level pretreated for 4 hrs followed by anti-CD3/CD28 stimulation for 20 mins by HTRF method", "format": "cell-based"}, "[6]": {"target": "T2, Mitogen-activated protein kinase kinase kinase kinase 1", "assay": "Inhibition of human recombinant wild type N-terminal HPK1 (1 to 346 residues) infected in insect Sf21 cells using fluorescein-PKC as substrate preincubated for 10 mins followed by substrate addition and measured after 90 mins by microplate reader based analysis", "format": "single protein"}, "[7]": {"assay": "Oral bioavailability n Sprague-Dawley rat at 10 mg/kg", "format": "ADME, organism-based", "conditions": "in vivo"}, "in vivo [8]": {"assay": "in vivo", "conditions": "Sprague-Dawley, rat, plasma, iv, 1 mg/kg", "description": "Clearance in Sprague-Dawley rat plasma at 1 mg/kg, iv"}, "[9]": {"assay": "Dose normalized AUC (0 to 24 hrs) in Balb/c mouse at 10 mg/kg, po", "format": "ADME, organism-based", "conditions": "in vivo"}, "in vivo [10]": {"assay": "in vivo", "conditions": "Beagle, dog, po, 2 mg/kg", "description": "Half life in Beagle dog at 2 mg/kg, po"}, "in vivo [11]": {"assay": "in vivo", "conditions": "Balb/c, mouse, plasma, iv, 1 mg/kg", "description": "Clearance in Balb/c mouse plasma at 1 mg/kg, iv"}, "[12]": {"assay": "Half life in Sprague-Dawley rat at 10 mg/kg, po", "format": "ADME, organism-based", "conditions": "in vivo"}, "in vivo [13]": {"assay": "in vivo", "conditions": "Beagle, dog, plasma, iv, 1 mg/kg", "description": "Clearance in Beagle dog plasma at 1 mg/kg, iv"}, "[14]": {"assay": "Oral bioavailability in Balb/c mouse at 10 mg/kg", "format": "ADME, organism-based", "conditions": "in vivo"}, "in vivo [15]": {"assay": "in vivo", "conditions": "Beagle, dog, po, 2 mg/kg", "remark": "listed apart in the source"}, "[16]": {"assay": "Half life in Balb/c mouse at 10 mg/kg, po", "format": "ADME, organism-based", "conditions": "in vivo"}, "in vivo [17]": {"assay": "in vivo", "conditions": "Balb/c, mouse, iv, 1 mg/kg", "description": "Volume of distribution in Balb/c mouse at 1 mg/kg, iv"}, "[18]": {"conditions": "dog, in vivo, po, 2 mg/kg"}, "in vivo [19]": {"assay": "in vivo", "conditions": "Sprague-Dawley, rat, iv, 1 mg/kg", "description": "Volume of distribution in Sprague-Dawley rat at 1 mg/kg, iv"}, "[20]": {"assay": "Dose normalized AUC (0 to 24 hrs) in Sprague-Dawley rat at 10 mg/kg, po", "format": "ADME, organism-based", "conditions": "in vivo"}, "in vivo [21]": {"assay": "in vivo", "conditions": "Beagle, dog, iv, 1 mg/kg", "description": "Volume of distribution in Beagle dog at 1 mg/kg, iv"}, "[22]": {"assay": "Volume of distribution in Balb/c mouse administered as iv dose", "format": "ADME, organism-based", "conditions": "in vivo"}, "[23]": {"assay": "Half life in Balb/c mouse administered as po dose", "format": "ADME, organism-based", "conditions": "in vivo"}, "[24]": {"assay": "Dose normalized AUC (0 to 24 hrs) in Balb/c mouse administered as po dose", "format": "ADME, organism-based", "conditions": "in vivo"}, "[25]": {"assay": "Clearance in Balb/c mouse plasma administered as iv dose", "format": "ADME, organism-based"}, "[26]": {"assay": "Oral bioavailability in Balb/c mouse", "format": "ADME, organism-based", "conditions": "in vivo"}, "in vivo [27]": {"assay": "in vivo", "conditions": "Sprague-Dawley, rat, po", "description": "Half life in Sprague-Dawley rat administered as po dose"}, "in vivo [28]": {"assay": "in vivo", "conditions": "Sprague-Dawley, rat, iv", "description": "Volume of distribution in Sprague-Dawley rat administered as iv dose"}, "in vivo [29]": {"assay": "in vivo", "conditions": "Sprague-Dawley, rat, po", "remark": "listed apart in the source", "description": "Oral bioavailability in Sprague-Dawley rat"}, "in vivo [30]": {"assay": "in vivo", "conditions": "Sprague-Dawley, rat, plasma, iv", "description": "Clearance in Sprague-Dawley rat plasma administered as iv dose"}}}
{"smiles": "CN(C)Cc1nc(Nc2ccc(-c3cnc4cc(F)ccn34)c3c2C(=O)NC3)ccc1C1CCOCC1", "values": [{"measurement": "EC50", "setting": "[1]", "value": 22.2, "unit": "nM"}, {"measurement": "IC50", "setting": "[2]", "value": 14, "unit": "nM"}, {"measurement": "EC50", "setting": "[3]", "value": 35.3, "unit": "nM"}]}
{"smiles": "COc1cc(Nc2ccc3c(n2)CN(C)C32CCOCC2)c(C(N)=O)nc1-c1cccc2c1ncn2C(F)F", "values": [{"measurement": "IC50", "setting": "[4]", "value": 322, "unit": "nM"}, {"measurement": "EC50", "setting": "[5]", "value": 102, "unit": "nM"}, {"measurement": "IC50", "setting": "[6]", "value": "< 0.51", "unit": "nM"}]}
{"smiles": "CN1Cc2nc(Nc3cc(C4CC4)c(-c4cccc5c4ncn5C)nc3C(N)=O)ccc2C12CCN(C1COC1)CC2", "values": [{"measurement": "IC50", "setting": "[4]", "value": 114, "unit": "nM"}, {"measurement": "bioavailability", "setting": "[7]", "value": 54.7, "unit": "%"}, {"measurement": "clearance", "setting": "in vivo [8]", "value": 19.8, "unit": "mL/min/kg"}, {"measurement": "AUC/dose", "setting": "[9]", "value": 308.2, "unit": "ng·h/mL"}, {"measurement": "half-life", "setting": "in vivo [10]", "value": 6.06, "unit": "h"}, {"measurement": "clearance", "setting": "in vivo [11]", "value": 13.2, "unit": "mL/min/kg"}, {"measurement": "half-life", "setting": "[12]", "value": 2.61, "unit": "h"}, {"measurement": "clearance", "setting": "in vivo [13]", "value": 14.7, "unit": "mL/min/kg"}, {"measurement": "bioavailability", "setting": "[14]", "value": 24.6, "unit": "%"}, {"measurement": "bioavailability", "setting": "in vivo [15]", "value": 26.3, "unit": "%"}, {"measurement": "half-life", "setting": "[16]", "value": 4.33, "unit": "h"}, {"measurement": "Vd", "setting": "in vivo [17]", "value": 1.08, "unit": "L/kg"}, {"measurement": "AUC/dose", "setting": "[18]", "value": 289.2, "unit": "ng·h/mL"}, {"measurement": "Vd", "setting": "in vivo [19]", "value": 2.25, "unit": "L/kg"}, {"measurement": "AUC/dose", "setting": "[20]", "value": 4502, "unit": "ng·h/mL"}, {"measurement": "EC50", "setting": "[5]", "value": 32.7, "unit": "nM"}, {"measurement": "IC50", "setting": "[6]", "value": "< 0.51", "unit": "nM"}, {"measurement": "Vd", "setting": "in vivo [21]", "value": 6, "unit": "L/kg"}]}
{"smiles": "COc1cc(Nc2ccc3c(n2)CN(C)C32CCCC2)c(C(N)=O)nc1-c1cccc2c1ncn2C", "values": [{"measurement": "IC50", "setting": "[4]", "value": 162, "unit": "nM"}, {"measurement": "EC50", "setting": "[5]", "value": 149, "unit": "nM"}, {"measurement": "IC50", "setting": "[6]", "value": "< 0.51", "unit": "nM"}]}
{"smiles": "CN1Cc2nc(Nc3cc(OC(F)F)c(-c4cccc5c4ncn5C)nc3C(N)=O)ccc2C12CCOCC2", "values": [{"measurement": "IC50", "setting": "[4]", "value": 153, "unit": "nM"}, {"measurement": "EC50", "setting": "[5]", "value": 54.9, "unit": "nM"}, {"measurement": "IC50", "setting": "[6]", "value": "< 0.51", "unit": "nM"}]}
{"smiles": "CN1Cc2nc(Nc3ccc(C4=CCCC(NC(=O)c5ccccc5)C4)nc3C(N)=O)ccc2C12CCOCC2", "note": "(stereo unspecified)", "values": [{"measurement": "IC50", "setting": "[4]", "value": 28.4, "unit": "nM"}, {"measurement": "Vd", "setting": "[22]", "value": 1.08, "unit": "L/kg"}, {"measurement": "half-life", "setting": "[23]", "value": 0.93, "unit": "h"}, {"measurement": "AUC/dose", "setting": "[24]", "value": 273.3, "unit": "ng·h/mL"}, {"measurement": "clearance", "setting": "[25]", "value": 23.7, "unit": "mL/min/kg"}, {"measurement": "IC50", "setting": "[6]", "value": 0.64, "unit": "nM"}, {"measurement": "bioavailability", "setting": "[26]", "value": 38.6, "unit": "%"}]}
{"smiles": "COc1cc(Nc2ccc3c(n2)CN(C)C32CCOCC2)c(C(N)=O)nc1-c1cncc2c1ncn2C", "values": [{"measurement": "IC50", "setting": "[4]", "value": 241, "unit": "nM"}, {"measurement": "half-life", "setting": "in vivo [27]", "value": 1.22, "unit": "h"}, {"measurement": "Vd", "setting": "in vivo [28]", "value": 1.75, "unit": "L/kg"}, {"measurement": "bioavailability", "setting": "in vivo [29]", "value": 24.3, "unit": "%"}, {"measurement": "EC50", "setting": "[5]", "value": 10, "unit": "nM"}, {"measurement": "IC50", "setting": "[6]", "value": "< 0.51", "unit": "nM"}, {"measurement": "clearance", "setting": "in vivo [30]", "value": 32.6, "unit": "mL/min/kg"}]}
{"smiles": "CCN1Cc2nc(Nc3cc(OC)c(-c4cccc5c4ncn5C)nc3C(N)=O)ccc2C12CCOCC2", "values": [{"measurement": "IC50", "setting": "[4]", "value": 239, "unit": "nM"}, {"measurement": "EC50", "setting": "[5]", "value": 168, "unit": "nM"}, {"measurement": "IC50", "setting": "[6]", "value": "< 0.51", "unit": "nM"}]}
{"smiles": "COc1cc(Nc2ccc3c(n2)CN(C)C32CCOCC2)c(C(N)=O)nc1-c1ccnc2c1ccn2C", "values": [{"measurement": "IC50", "setting": "[4]", "value": 27, "unit": "nM"}, {"measurement": "IC50", "setting": "[6]", "value": "< 0.51", "unit": "nM"}]}
{"smiles": "COc1cc(Nc2ccc3c(n2)CN(C)C32CCOCC2)c(C(N)=O)nc1-c1cncc2c1ccn2C", "values": [{"measurement": "IC50", "setting": "[4]", "value": 95, "unit": "nM"}, {"measurement": "IC50", "setting": "[6]", "value": "< 0.51", "unit": "nM"}]}
